Measured values reported in ChEMBL document CHEMBL1201862, “PubChem BioAssay data set” (2004).
Values belong to the molecule of their own block, whether it stands above or below them. The source made the active and inactive calls.

What was measured:
[1] = HEp-2 cell cytotoxicity, dose response, cytotoxicity control for RSV inhibitor project, HTS (AID 2410); type: functional; settings: human respiratory syncytial virus
[2] = C. albicans growth with fluconazole, confirmation, fluorescence, retest (AID 2467); type: functional, cell-based
[3] = NIH-3T3 fibroblast cytotoxicity, dose response, cytotoxicity control, cell-based, fluorescence, Alamar Blue, secondary assay (AID 2327); type: functional;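 further: NIH-3T3 mouse fibroblasts cultured with fluconazole at 8 µg/mL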
[4] = biological target: FAD-linked sulfhydryl oxidase ALR (Homo sapiens, UniProt P55789); assay: inhibitors of human ALR sulfhydryl oxidase, dose response, biochemical, H2O2 detection, luminescence, cherry-pick (AID 493248)
[5] = P. falciparum Dd2 growth inhibitors, dose response, SYBR Green, cherry-picked samples (AID 1159567); type: functional, cell-based
[6] = biological target: T1, Corticotropin-releasing factor receptor 2/Corticotropin-releasing factor-binding protein (Homo sapiens, UniProt P24387+Q13324); assay: Dose Response confirmation of uHTS hits for small molecule antagonists of the CRF-binding protein and CRF-R2 receptor complex.; type: functional; settings: read-out: IC50_Mean
T1 sequence (Q13324 whole entry): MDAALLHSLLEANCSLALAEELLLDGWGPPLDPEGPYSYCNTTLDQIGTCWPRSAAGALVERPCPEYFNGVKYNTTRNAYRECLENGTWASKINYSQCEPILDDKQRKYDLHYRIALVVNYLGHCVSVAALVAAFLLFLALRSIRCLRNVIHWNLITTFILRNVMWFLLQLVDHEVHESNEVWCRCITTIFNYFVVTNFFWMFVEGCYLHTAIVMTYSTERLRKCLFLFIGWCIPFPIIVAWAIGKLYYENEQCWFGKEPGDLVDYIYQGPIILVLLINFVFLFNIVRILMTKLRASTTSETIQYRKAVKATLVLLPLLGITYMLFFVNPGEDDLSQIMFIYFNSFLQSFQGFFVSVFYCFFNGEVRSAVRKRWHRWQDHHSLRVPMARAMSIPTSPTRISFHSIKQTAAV
T1 sequence (P24387 whole entry): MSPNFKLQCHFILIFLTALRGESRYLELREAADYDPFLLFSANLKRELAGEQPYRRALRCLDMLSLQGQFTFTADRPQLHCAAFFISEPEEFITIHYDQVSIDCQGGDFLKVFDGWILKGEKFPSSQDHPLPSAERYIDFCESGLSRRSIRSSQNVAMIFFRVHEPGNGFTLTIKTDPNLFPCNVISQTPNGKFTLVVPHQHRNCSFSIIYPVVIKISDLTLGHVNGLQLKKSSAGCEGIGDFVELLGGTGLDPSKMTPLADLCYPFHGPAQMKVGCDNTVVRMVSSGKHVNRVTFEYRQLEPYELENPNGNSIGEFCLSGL

[7] = biological target: T1, Corticotropin-releasing factor receptor 2/Corticotropin-releasing factor-binding protein; assay: activators of CRF receptor 2 with binding protein – uHTS hits, confirmation (AID 602473); type: functional; settings: read-out: EC50_Mean
H9c2 = assay: cells; type: functional, cell-based; settings: Rattus norvegicus, H9c2, Myocardium;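 further: confirmatory concentration-response retest of ultra-high-throughput screening hits for modulation of myocardial damage; cell death induced by hydrogen peroxide oxidative stress; compound pretreatment for 60 min then peroxide exposure for 2 h; potency is for protecting the cells against peroxide damage rather than for killing them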
[8] = biological target: T2, Rac GTPase-activating protein 1 (Homo sapiens, UniProt Q9H0H5); assay: MgcRacGAP GTPase-activating activity inhibitors, confirmation, biochemical, ADP Hunter fluorescence, primary and confirmatory (AID 624330); type: functional
T2 sequence (Q9H0H5 whole entry): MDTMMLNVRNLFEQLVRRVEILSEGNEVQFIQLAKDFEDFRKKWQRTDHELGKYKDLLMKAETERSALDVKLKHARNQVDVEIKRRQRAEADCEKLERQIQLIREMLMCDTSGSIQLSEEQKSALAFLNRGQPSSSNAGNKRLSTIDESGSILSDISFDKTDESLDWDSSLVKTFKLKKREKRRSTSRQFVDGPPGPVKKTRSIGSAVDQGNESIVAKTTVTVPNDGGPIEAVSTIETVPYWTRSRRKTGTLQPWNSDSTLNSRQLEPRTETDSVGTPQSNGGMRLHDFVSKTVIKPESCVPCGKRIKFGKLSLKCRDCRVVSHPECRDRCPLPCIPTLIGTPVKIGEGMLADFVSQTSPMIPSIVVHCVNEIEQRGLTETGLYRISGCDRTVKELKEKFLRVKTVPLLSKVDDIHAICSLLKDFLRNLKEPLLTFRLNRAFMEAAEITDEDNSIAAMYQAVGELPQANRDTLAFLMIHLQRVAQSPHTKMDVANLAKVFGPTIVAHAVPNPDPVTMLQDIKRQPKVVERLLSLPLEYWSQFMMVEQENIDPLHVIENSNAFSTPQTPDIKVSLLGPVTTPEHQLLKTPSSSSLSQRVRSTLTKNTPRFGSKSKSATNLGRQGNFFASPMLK

INS1 = assay: beta cell apoptosis inhibitors, cytokine rescue, dose response, luminescence, retest (AID 449756); type: functional, cell-based; settings: Rattus norvegicus;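 further: cell death triggered by IL-1 beta plus TNF-alpha plus IFN-gamma mixture; protective hits raise ATP signal compared with cytokine alone wells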
Cytochrome P450 1A2 = biological target: T3, Cytochrome P450 1A2 (Homo sapiens, UniProt P05177);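 further: PubChem cytochrome P450 panel assay, CYP1A2 panel member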
T3 sequence (P05177 whole entry): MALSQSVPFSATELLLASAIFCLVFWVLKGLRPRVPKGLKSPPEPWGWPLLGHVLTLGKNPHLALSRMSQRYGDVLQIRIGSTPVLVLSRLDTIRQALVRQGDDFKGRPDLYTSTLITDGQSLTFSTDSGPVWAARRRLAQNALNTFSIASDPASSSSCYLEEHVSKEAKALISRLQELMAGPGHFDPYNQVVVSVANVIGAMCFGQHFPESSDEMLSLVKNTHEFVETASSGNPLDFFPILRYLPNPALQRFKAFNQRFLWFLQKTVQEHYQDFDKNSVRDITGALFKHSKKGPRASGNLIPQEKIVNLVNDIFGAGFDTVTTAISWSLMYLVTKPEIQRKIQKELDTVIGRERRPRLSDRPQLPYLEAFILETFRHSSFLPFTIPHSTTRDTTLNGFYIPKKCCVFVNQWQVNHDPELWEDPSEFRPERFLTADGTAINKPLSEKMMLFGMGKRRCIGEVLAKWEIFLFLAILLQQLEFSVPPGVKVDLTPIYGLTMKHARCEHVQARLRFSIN

Cytochrome P450 2C19 = Cytochrome P450 2C19 (Homo sapiens, UniProt P33261); assay: Cytochrome panel assay with activity outcomes. Panel member name: p450-cyp2c19 Compounds with AC50 equal or less than 10 uM are considered active; type: functional; settings: read-out: AC50
Cytochrome P450 2D6 = Cytochrome P450 2D6 (Homo sapiens, UniProt P10635);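 further: CYP2D6 member of a cytochrome P450 panel assay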
Cytochrome P450 2C9 = Cytochrome P450 2C9 (Homo sapiens, UniProt P11712)
Cytochrome P450 3A4 = Cytochrome P450 3A4 (Homo sapiens, UniProt P08684);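 further: CYP3A4 tested as one member of a cytochrome P450 panel screen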
Sequence of Cytochrome P450 3A4 (P08684 whole entry): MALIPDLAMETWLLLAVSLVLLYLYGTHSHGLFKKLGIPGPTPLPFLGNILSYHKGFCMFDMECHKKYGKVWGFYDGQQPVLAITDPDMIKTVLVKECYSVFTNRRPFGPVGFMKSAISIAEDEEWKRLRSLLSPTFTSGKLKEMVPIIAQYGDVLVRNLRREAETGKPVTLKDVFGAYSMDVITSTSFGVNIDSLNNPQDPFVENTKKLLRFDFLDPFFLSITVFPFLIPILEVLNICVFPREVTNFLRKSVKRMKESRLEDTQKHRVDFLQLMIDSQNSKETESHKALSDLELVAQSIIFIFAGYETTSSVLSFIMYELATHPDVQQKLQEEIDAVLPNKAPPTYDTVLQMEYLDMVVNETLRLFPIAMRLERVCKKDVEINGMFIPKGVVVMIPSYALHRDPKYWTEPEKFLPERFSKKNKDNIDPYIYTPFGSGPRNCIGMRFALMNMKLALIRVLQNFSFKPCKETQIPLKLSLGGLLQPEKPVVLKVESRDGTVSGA

Sequence of FAD-linked sulfhydryl oxidase ALR (P55789 whole entry): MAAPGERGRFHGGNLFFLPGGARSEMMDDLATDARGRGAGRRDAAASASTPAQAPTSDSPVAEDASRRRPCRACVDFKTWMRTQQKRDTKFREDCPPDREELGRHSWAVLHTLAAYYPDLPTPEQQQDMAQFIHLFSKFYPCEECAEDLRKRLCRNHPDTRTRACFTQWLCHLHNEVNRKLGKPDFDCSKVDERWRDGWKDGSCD
Sequence of Cytochrome P450 2D6 (P10635 whole entry): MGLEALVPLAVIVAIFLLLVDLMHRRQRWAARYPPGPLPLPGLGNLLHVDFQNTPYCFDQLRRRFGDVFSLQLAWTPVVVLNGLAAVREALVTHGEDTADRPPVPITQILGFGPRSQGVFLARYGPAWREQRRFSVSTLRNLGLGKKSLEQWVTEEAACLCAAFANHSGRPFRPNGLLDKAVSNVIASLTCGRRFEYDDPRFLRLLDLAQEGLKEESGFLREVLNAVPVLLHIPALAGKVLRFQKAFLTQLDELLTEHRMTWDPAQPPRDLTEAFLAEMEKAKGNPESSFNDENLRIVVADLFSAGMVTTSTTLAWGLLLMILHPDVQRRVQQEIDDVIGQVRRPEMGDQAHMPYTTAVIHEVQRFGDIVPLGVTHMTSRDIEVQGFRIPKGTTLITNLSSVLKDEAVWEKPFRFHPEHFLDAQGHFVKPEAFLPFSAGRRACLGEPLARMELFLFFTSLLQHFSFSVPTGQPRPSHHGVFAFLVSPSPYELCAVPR
Sequence of Cytochrome P450 2C9 (P11712 whole entry): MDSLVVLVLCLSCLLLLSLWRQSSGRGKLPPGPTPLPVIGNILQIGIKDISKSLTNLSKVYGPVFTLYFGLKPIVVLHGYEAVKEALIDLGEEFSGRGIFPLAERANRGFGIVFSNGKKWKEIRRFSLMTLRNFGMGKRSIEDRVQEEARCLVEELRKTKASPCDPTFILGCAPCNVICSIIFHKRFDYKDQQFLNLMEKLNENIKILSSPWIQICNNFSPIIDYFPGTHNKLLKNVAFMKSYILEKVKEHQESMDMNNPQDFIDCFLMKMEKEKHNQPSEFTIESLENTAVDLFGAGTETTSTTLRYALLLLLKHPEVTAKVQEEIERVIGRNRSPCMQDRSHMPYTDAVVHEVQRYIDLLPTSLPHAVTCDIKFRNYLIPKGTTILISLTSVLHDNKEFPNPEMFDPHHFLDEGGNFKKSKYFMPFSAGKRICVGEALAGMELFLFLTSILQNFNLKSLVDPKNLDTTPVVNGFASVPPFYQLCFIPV
Sequence of Cytochrome P450 2C19 (P33261 whole entry): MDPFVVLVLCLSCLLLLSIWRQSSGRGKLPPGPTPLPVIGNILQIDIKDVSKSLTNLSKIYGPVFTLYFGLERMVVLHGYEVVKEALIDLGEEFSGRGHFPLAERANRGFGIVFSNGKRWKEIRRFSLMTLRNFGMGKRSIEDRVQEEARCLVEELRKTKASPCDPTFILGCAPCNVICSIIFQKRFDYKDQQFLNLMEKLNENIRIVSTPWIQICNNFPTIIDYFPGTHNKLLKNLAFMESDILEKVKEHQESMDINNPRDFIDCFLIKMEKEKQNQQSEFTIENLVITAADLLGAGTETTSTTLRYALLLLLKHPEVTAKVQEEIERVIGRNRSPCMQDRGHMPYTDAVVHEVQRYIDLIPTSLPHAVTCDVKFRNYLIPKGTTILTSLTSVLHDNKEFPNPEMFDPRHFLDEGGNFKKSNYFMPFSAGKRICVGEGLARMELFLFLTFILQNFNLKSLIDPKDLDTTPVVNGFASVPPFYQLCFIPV

SMILES: O=C(CCCN1C(=O)c2cccc3cccc(c23)C1=O)N1CCN(c2ccc(F)cc2)CC1
CC50 [1]: 46.2 µM (active)

SMILES: CCc1nn(CCCC(=O)NCc2ccc(C)cc2)c(=O)c2cc3occc3n12
EC50 [2]: > 38 µM (not active)
EC50 [3]: > 160 µM (inconclusive)

SMILES: Cc1cc(SCC(=O)Nc2cccc(S(=O)(=O)NC3=NCCCCC3)c2)nc2ccccc12
CC50 [1]: 40.6 µM (active)

AC50 [4]: < 0.005 µM (active)
SMILES: COc1ccccc1NC(=O)c1c(NC(=O)CCC(=O)O)sc2c1CCCCC2

AC50 [4]: 5.05 µM (active)
SMILES: CCN(CC)c1ccc(NC(=O)C2=CCN(S(=O)(=O)c3ccc(F)cc3)CC2)c(C)c1

SMILES: CO[C@@H]1CN(C)C(=O)c2ccc(NC(=O)Nc3ccc(C(F)(F)F)cc3)cc2OC[C@@H](C)NC[C@@H]1C
AC50 [5]: 4.23 µM (active)

IC50 [6]: 5.03 µM (active)
EC50 [7]: > 53 µM (inactive)
SMILES: COC(=O)c1cc(C#N)c(N(C)Cc2ccccc2)nc1C

SMILES: O=C(Nc1ccc(C(=O)N2CCCc3ccccc32)cc1)c1cccs1
CC50 [1]: 35.4 µM (active)

IC50 [6]: 15.4 µM (active)
EC50 [7]: > 53 µM (inactive)
SMILES: COC(=O)C(F)(F)Sc1c(C)[nH]c2ccccc12

AC50 [4]: 1.2 µM (active)
SMILES: COc1ccc(N(C)S(=O)(=O)c2cccc(C(=O)Nc3nc(C)cs3)c2)cc1

SMILES: COc1ccc(Cl)cc1NC(=O)CN(C)C(=O)Cc1nnc(O)c2ccccc12
IC50 (H9c2): > 79 µM (inactive)

SMILES: Oc1c(Br)cc(Br)cc1/C=N/c1ccc2c(c1)OCCO2
IC50 [8]: 119 µM (active)
IC50 (H9c2): 17.6 µM (active)

SMILES: Cc1ccc(C(=O)OCC(=O)Nc2sccc2C(N)=O)cc1NC(=O)c1ccco1
IC50 (H9c2): > 79 µM (inactive)

IC50 [6]: > 47.1 µM (inactive)
EC50 [7]: > 53 µM (inactive)
SMILES: Cc1ccc(S(=O)(=O)NC2=NCN(C3CCN(Cc4ccccc4)CC3)CN2)cc1

SMILES: CN1/C(=C\C(=O)C[n+]2ccc(C(=O)c3ccccc3)cc2)C(C)(C)c2ccccc21
AC50 (INS1): 2.42 µM (active)
EC50 [2]: 3.12 µM (active)
EC50 [3]: > 150 µM (inactive)

IC50 [6]: > 47.1 µM (inactive)
EC50 [7]: > 53 µM (inactive)
SMILES: O=Nc1nc2ncccn2c1-c1ccccc1

AC50 [4]: > 100 µM (inactive)
SMILES: COC(=O)[C@H](Cc1ccccc1)NC(=O)N1CCN(c2ccc(F)cc2)CC1

SMILES: Nc1nc(Cc2ccccc2)nc(Cc2ccccc2)c1-c1ccccc1
AC50 (Cytochrome P450 1A2): 1 µM (inconclusive)
AC50 (Cytochrome P450 2C19): 6.31 µM (inconclusive)
AC50 (Cytochrome P450 2D6): 3.16 µM (inconclusive)
AC50 (Cytochrome P450 2C9): 3.16 µM (inconclusive)
AC50 (Cytochrome P450 3A4): 3.16 µM (inconclusive)

SMILES: CN1c2ccc(C3=CCCCC3)cc2[C@H]2[C@H](CCN2C(=O)C2CC2)[C@@H]1CO
AC50 [5]: 0.964 µM (active)

SMILES: CC[C@H](C)[C@@H](C(=O)NCCCCCCCCCCC(=O)N1CCN(C(=O)OC(C)(C)C)CC1)n1cc(CCCCCNC(=O)OC(C)(C)C)nn1
AC50 (INS1): 4.08 µM (active)

SMILES: CC(=O)C1=C(C)NC(SCC(=O)c2cc(Cl)ccc2Cl)=C(C#N)C1c1ccco1 (stereo unspecified)
CC50 [1]: 14.2 µM (active)

SMILES: Cc1cc(-n2c(SCC(=O)Nc3ccc(F)c(F)c3)nc3nnc(C)c-3c2N)ccc1Cl
AC50 (INS1): 5.57 µM (active)

SMILES: Cc1cc(Nc2ccccc2C(=O)O)nc2nc3ccccc3c(=O)n12
IC50 (H9c2): 14.2 µM (active)

SMILES: CO[C@H]1CN(C)C(=O)c2cc(NC(=O)C3CC3)ccc2OC[C@H](C)N(Cc2cc(F)ccc2F)C[C@@H]1C
AC50 [5]: 6.44 µM (active)
